Measured values: BigSolDB 2.1

CC(=O)Nc1ccc(OC(=O)c2ccccc2OC(C)=O)cc1
solubility (mole fraction)
Details | 278.15 K | 283.15 K | 288.15 K | 293.15 K | 298.15 K | 303.15 K | 308.15 K | 313.15 K | 318.15 K
in acetone | 0.00215 | 0.00268 | 0.00353 | 0.00414 | 0.0052 | 0.00593 | 0.00792 | 0.0098 | 0.0123
in acetonitrile | 0.00129 | 0.00153 | 0.00192 | 0.00235 | 0.00275 | 0.00378 | 0.00452 | 0.00575 | 0.00674
in ethanol | 0.000242 | 0.000364 | 0.000497 | 0.000601 | 0.000717 | 0.000987 | 0.00125 | 0.00155 | 0.002
in ethyl acetate | 0.000904 | 0.00109 | 0.00115 | 0.00147 | 0.00179 | 0.00216 | 0.00268 | 0.00325 | 0.00391
in ethyl formate | 0.000965 | 0.00111 | 0.00138 | 0.00165 | 0.00193 | 0.00227 | 0.00299 | 0.00394 | 0.00449
in isobutanol | 0.000204 | 0.000272 | 0.000344 | 0.000485 | 0.000587 | 0.000739 | 0.00107 | 0.00131 | 0.00161
in isopropanol | 0.000153 | 0.000216 | 0.000261 | 0.000314 | 0.000481 | 0.000593 | 0.000833 | 0.00106 | 0.00137
in isopropyl acetate | 0.000329 | 0.000423 | 0.00056 | 0.000886 | 0.00106 | 0.00145 | 0.00189 | 0.00241 | 0.00314
in methanol | 0.000427 | 0.000575 | 0.000718 | 0.000908 | 0.001 | 0.00129 | 0.00171 | 0.0021 | 0.00271
in methyl acetate | 0.000971 | 0.00121 | 0.00155 | 0.00183 | 0.0023 | 0.00267 | 0.0034 | 0.00406 | 0.00481
in n-butanol | 0.000302 | 0.000407 | 0.000517 | 0.000643 | 0.000764 | 0.000939 | 0.00127 | 0.00143 | 0.00174
in n-propanol | 0.000181 | 0.000268 | 0.000361 | 0.000561 | 0.000723 | 0.000994 | 0.0013 | 0.00166 | 0.00222
